Reference: US20250230193A1, “CYCLIC COMPOUND HAVING SELECTIVE KRAS INHIBITORY EFFECT ON HRAS AND NRAS” (CHUGAI SEIYAKU KABUSHIKI KAISHA, priority 2022, published 2025)
Where a SMILES comes first, the peptide text is derived from it. Bridges are numbered along the chain shown (N, C = ends). [ ]: non-standard residue; d: D form. The star is where a group is joined. hPhe(3-Cl-4-CF3) = N[C@@H](CCc1ccc(C(F)(F)F)c(Cl)c1)C(=O)O; NPrPhe(4-CF3) = CCCN[C@@H](Cc1ccc(C(F)(F)F)cc1)C(=O)O; NMeGly(cPent) = CN[C@H](C(=O)O)C1CCCC1; Hyp = O=C(O)[C@@H]1C[C@@H](O)CN1; Gly(cBu) = N[C@H](C(=O)O)C1CCC1; NMeD = CN[C@@H](CC(=O)O)C(=O)O; NMeL = CN[C@@H](CC(C)C)C(=O)O; Morpholide = C1CN(*)CCO1; NMeA = CN[C@@H](C)C(=O)O; Ac5c = NC1(C(=O)O)CCCC1; Aze = O=C(O)[C@@H]1CCN1; Ac4c = NC1(C(=O)O)CCC1; Sar = CNCC(=O)O

What was measured:
[1] = molecular target: GDP-bound NRAS wild-type protein (Homo sapiens, UniProt P01111); assay: Binding to NRAS by surface plasmon resonance (SPR), Single Cycle Kinetics; conditions: SPR
[2] = molecular target: GDP-bound HRAS wild-type protein (Homo sapiens, UniProt P01112); assay: Binding to HRAS by surface plasmon resonance (SPR), Single Cycle Kinetics; conditions: SPR
[3] = GDP-bound NRAS wild-type vs GDP-bound KRAS wild-type
[4] = GDP-bound HRAS wild-type vs GDP-bound KRAS wild-type

Chain of GDP-bound HRAS wild-type protein (P01112 whole entry): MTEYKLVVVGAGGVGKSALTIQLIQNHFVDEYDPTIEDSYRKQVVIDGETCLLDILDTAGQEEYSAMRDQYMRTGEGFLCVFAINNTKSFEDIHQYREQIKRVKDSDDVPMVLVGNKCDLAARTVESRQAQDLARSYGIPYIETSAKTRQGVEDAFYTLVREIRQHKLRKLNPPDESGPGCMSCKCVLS
Chain of GDP-bound NRAS wild-type protein (P01111 whole entry): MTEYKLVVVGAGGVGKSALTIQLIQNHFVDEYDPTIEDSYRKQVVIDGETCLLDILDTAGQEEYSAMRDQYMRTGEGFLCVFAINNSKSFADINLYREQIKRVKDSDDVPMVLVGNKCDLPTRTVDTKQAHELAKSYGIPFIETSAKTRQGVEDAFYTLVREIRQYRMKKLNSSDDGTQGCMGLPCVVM

## CCC(CC)[C@H]1C(=O)N(C)[C@H](C(=O)N(C)C)CC(=O)N(C)[C@@H](COC)C(=O)N[C@@H]([C@@H](C)CC)C(=O)N(C2CC2)CC(=O)N(C)[C@H]2C/C=C\CCN(C2=O)[C@@H](Cc2ccc(C)cc2)C(=O)N(C)CC(=O)N[C@@H](CCc2ccc(Cl)c(Cl)c2)C(=O)N2C[C@H](OC(C)C)C[C@H]2C(=O)NC2(CC(C)(C)C2)C(=O)N1C (stereo in doubt) [PP2509]
[1]; [3]
  NRAS/KRAS (ratio of KD value with respect to NRAS to KD value with respect to KRAS): AA (a compound having 20 or more is denoted as AA)
[2]; [4]
  HRAS/KRAS (ratio of KD value with respect to HRAS to KD value with respect to KRAS): A (a compound having 10 or more and less than 20 is denoted as A)

## C#CC[C@H]1C(=O)N[C@@H]([C@@H](C)CC)C(=O)N(C)CC(=O)N(C)[C@H]2C/C=C\CCN(C2=O)[C@@H](Cc2ccc(C(F)(F)F)cc2)C(=O)N(C)CC(=O)N[C@@H](CCc2cc(F)c(C(F)(F)F)c(F)c2)C(=O)N2C[C@H](OCC)C[C@H]2C(=O)NC2(CC(C)(C)C2)C(=O)N(C)[C@@H](C2CCCC2)C(=O)N(C)[C@H](C(=O)N(C)CC)CC(=O)N1C [PP2073]
[1]; [3]
  NRAS/KRAS (ratio of KD value with respect to NRAS to KD value with respect to KRAS): A (a compound having 10 or more and less than 20 is denoted as A)
[2]; [4]
  HRAS/KRAS (ratio of KD value with respect to HRAS to KD value with respect to KRAS): A (a compound having 10 or more and less than 20 is denoted as A)

## CCO[C@@H]1C[C@H]2C(=O)NC3(CCC3)C(=O)N(C)[C@@H](C3CCCC3)C(=O)N(C)[C@H](C(=O)N(C)C)CC(=O)N(C)[C@@H](CC(C)C)C(=O)N[C@@H]([C@@H](C)CC)C(=O)N(C)CC(=O)N(C)[C@H]3CCCCCN(C3=O)[C@@H](Cc3ccc(C(F)(F)F)cc3)C(=O)N(C)CC(=O)N[C@@H](CCc3cc(F)c(C(F)(F)F)c(F)c3)C(=O)N2C1 [PP0469]
[1]; KD ratio NRAS/KRAS
  NRAS/KRAS (ratio of KD value with respect to GDP-bound NRAS wild-type protein to KD value with respect to KRAS): B (a compound having 3 or more and less than 10 is denoted as B)
[2]; KD ratio HRAS/KRAS
  HRAS/KRAS (ratio of KD value with respect to GDP-bound HRAS wild-type protein to KD value with respect to KRAS): B (a compound having 3 or more and less than 10 is denoted as B)

## CCCN1C(=O)CN(C)C(=O)[C@@H]2CCN2C(=O)[C@H]([C@@H](C)CC)NC(=O)[C@H](CC(C)C)N(C)C(=O)C[C@@H](C(=O)N(C)C)NC(=O)[C@H](C2CCCC2)N(C)C(=O)C2(CCC2)NC(=O)[C@@H]2C[C@@H](OCC)CN2C(=O)[C@H](CCc2ccc(C(F)(F)F)c(Cl)c2)NC(=O)CN(C)C(=O)[C@@H]1Cc1ccc(C(F)(F)F)cc1 [PP0378] ([NMeL]I[Aze][Sar][NPrPhe(4-CF3)][Sar][hPhe(3-Cl-4-CF3)][Hyp](Et)[Ac4c][NMeGly(cPent)]D-NMe2; lactam N-11)
[1]; KD ratio NRAS/KRAS
  NRAS/KRAS (ratio of KD for GDP-bound NRAS wild-type to KD for KRAS): B (a compound having 3 or more and less than 10 is denoted as B)
[2]; KD ratio HRAS/KRAS
  HRAS/KRAS (ratio of KD for GDP-bound HRAS wild-type to KD for KRAS): B (a compound having 3 or more and less than 10 is denoted as B)

## CCCN(C)C(=O)[C@@H]1CC(=O)N(C)[C@@H](CC)C(=O)N[C@@H]([C@@H](C)CC)C(=O)N(C)CC(=O)N(C)[C@H]2C/C=C\CCN(C2=O)[C@@H](Cc2ccc(C(F)(F)F)cc2)C(=O)N(C)CC(=O)N[C@@H](CCc2cc(F)c(C(F)(F)F)c(F)c2)C(=O)N2C[C@H](OCC)C[C@H]2C(=O)NC2(CC(C)(C)C2)C(=O)N(C)[C@@H](C2CCCC2)C(=O)N1C [PP1670]
[1]; KD ratio, GDP-bound NRAS wild-type vs GDP-bound KRAS wild-type
  NRAS/KRAS (ratio of KD value for NRAS to KD value for KRAS): A (a compound having 10 or more and less than 20 is denoted as A)
[2]; KD ratio, GDP-bound HRAS wild-type vs GDP-bound KRAS wild-type
  HRAS/KRAS (ratio of KD value for HRAS to KD value for KRAS): A (a compound having 10 or more and less than 20 is denoted as A)

## CCCN1C(=O)[C@@H]2CCN2C(=O)[C@H](C)N(C)C(=O)[C@H](C2CCC2)NC(=O)[C@H](CC(C)C)N(C)C(=O)C[C@@H](C(=O)N2CCOCC2)N(C)C(=O)[C@H](C2CCCC2)N(C)C(=O)C2(CCCC2)NC(=O)[C@@H]2CCCN2C(=O)[C@H](CCc2ccc(C(F)(F)F)c(Cl)c2)NC(=O)CN(C)C(=O)[C@@H]1Cc1ccc(C(F)(F)F)cc1 [PP0271] ([NMeL][Gly(cBu)][NMeA][Aze][NPrPhe(4-CF3)][Sar][hPhe(3-Cl-4-CF3)]P[Ac5c][NMeGly(cPent)][NMeD]-Morpholide; lactam N-11)
[1]; KD ratio NRAS/KRAS
  NRAS/KRAS (ratio of KD for GDP-bound NRAS wild-type to KD for KRAS): C (A compound having a KD ratio of 0.1 or more and less than 3 is denoted as C)
[2]; KD ratio HRAS/KRAS
  HRAS/KRAS (ratio of KD for GDP-bound HRAS wild-type to KD for KRAS): B (a compound having 3 or more and less than 10 is denoted as B)

## CCC(CC)[C@H]1C(=O)N(C)[C@H](C(=O)N(C)C)CC(=O)N(C)[C@@H](CC2CC2)C(=O)N[C@@H]([C@@H](C)CC)C(=O)N(C)CC(=O)N(C)[C@H]2C/C=C\CCN(C2=O)[C@@H](CC2CCC(F)(F)CC2)C(=O)N(C)CC(=O)N[C@@H](CCc2cc(F)c(C(F)(F)F)c(F)c2)C(=O)N2C[C@@H](C)C[C@H]2C(=O)NC2(CC(C)(C)C2)C(=O)N1C [PP2500]
[1]; [3]
  NRAS/KRAS (ratio of KD value with respect to NRAS to KD value with respect to KRAS): A (a compound having 10 or more and less than 20 is denoted as A)
[2]; [4]
  HRAS/KRAS (ratio of KD value with respect to HRAS to KD value with respect to KRAS): A (a compound having 10 or more and less than 20 is denoted as A)
